In US8304406B2, “Compounds for treating pulmonary hypertension” (Bayer Intellectual Property GmbH, priority 2006, dated 2012):

Legend:
[1] = tested on: monocrotaline (MCT) induced pulmonary arterial hypertension in rats; test: Pulmonary artery pressure in monocrotaline treated rats; assay type: in vivo, rat (male Sprague Dawley)
Description: Pulmonary Artery Pressure in Monocrotaline Treated Rats
Male Sprague Dawley rats (250-300 g) are treated with monocrotaline 60 mg/kg subcutanously (=day 0). On day 14 after monocrotaline injection treatment the compound/combination to be tested is administered. On day 28 hemodynamic parameters, i.e. right ventricular pressure, systemic blood pressure, heart rate, arterial and venous oxygen saturation are measured and compared with untreated control animals.
The mentioned monocrotaline (MCT) treated rats are randomized to receive example 14 [4-(4-chlorophenylamino)-7-(2-methylaminocarbonyl-4-pyridylmethoxy)furo-[2,3-d]pyridazine] 10 mg/kg or vehicle by gavage once daily after the onset of moderate pulmonary arterial hypertension starting 14 days after the injection of MCT until the final hemodynamic measurement on day 28. In animals with MCT induced pulmonary arterial hypertension treatment with example 14 markedly decreases right ventricular systolic pressure, compared to vehicle treated animals (control: 25±0.56 mmHg; example 14: 42.04±3.21 mmHg vs. placebo: 71.02±5.38 mmHg) (mean±SEM). This effect of example 14 is paralleled by an inhibition of right ventricular hypertrophy (right ventricle/left ventricle+septum ratio control: 0.26±0.01; example 14: 0.32±0.02 vs. placebo: 0.54±0.04).

melting point	SMILES	right ventricle/left ventricle+septum ratio (right ventricular hypertrophy) ([1]; 10 mg/kg by gavage once daily from day 14 to day 28, day 28, control 0.26±0.01, placebo 0.54±0.04)	right ventricular systolic pressure ([1]; 10 mg/kg by gavage once daily from day 14 to day 28, measured day 28, mean±SEM, control 25±0.56, placebo 71.02±5.38)
203 to 205 °C (dec.)	Clc1ccc(Nc2nnc(OCc3ccncc3)c3sccc23)cc1	–	–
–	CNC(=O)c1cc(COc2nnc(Nc3ccc(Cl)cc3)c3ccoc23)ccn1 [Example 14, 4-(4-chlorophenylamino)-7-(2-methylaminocarbonyl-4-pyridylmethoxy)furo-[2,3-d]pyridazine]	0.32±0.02	42.04±3.21 mmHg
233 °C	NC(=O)c1cc(COc2nnc(Nc3ccc(Cl)cc3)c3ccsc23)ccn1	–	–
